Data on 15 molecules can be found in PubChem BioAssay (NCI).

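Test compounds were applied to cells in 96-well plates for 48 hours at 5 doses. GI50: concentration for 50% inhibition of growth. At the TGI there is no net growth.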

What all share (experiment): NCI anticancer screen, dose series, 48 h
Experiment [1] has as its system SNB-75 CNS.
Experiment [2] concerns OVCAR-8 ovarian.
The test system of experiment [3] is SF-539 CNS.
The test system of experiment [4] is MDA-MB-435.
The test system of experiment [5] is UACC-62 melanoma.
In experiment [6] the test system is K-562 leukemia.
Experiment [7] concerns HS 578T breast.
The subject of experiment [8] is DU-145 prostate.
In experiment [9] the test system is KM12 colon.
For experiment [10], the system named is HOP-92 NSCLC.

Regarding `Cc1ccccc1C(=O)N/N=C/c1ccc(Sc2nccn2C)c([N+](=O)[O-])c1`, the TGI in experiment [1] is above 100 µM; in experiment [2], above 100 µM; in experiment [3], above 100 µM; in experiment [4], 81.1 µM; in experiment [5], above 100 µM; in experiment [6] it was above 100 µM. The TGI in experiment [7] was above 100 µM; in experiment [8], above 100 µM; in experiment [9], above 100 µM; in [10], 88.2 µM.

Turning to `CNC(=O)OCc1c(CO)nc(SC)n1C`, the TGI in experiment [1], in experiment [2], in [3], in experiment [5], in experiment [6] and in experiment [9] was above 100 µM each time. This molecule displayed a TGI in [10] above 100 µM.

On to `O=C(O)C1C2CCC(O2)C1C(=O)Nc1cccc2cccnc12` (stereo not given), for which the TGI in [1], in [4], in experiment [5], in experiment [6], in experiment [7] and in experiment [8] was above 100 µM each time. Also, in experiment [9], the TGI was above 100 µM.

As to `O=c1[nH]nc(NNc2ccccc2)c2nnn(C3CCCCC3)c12`, the TGI in [2], in experiment [4], in experiment [6], in experiment [8], in experiment [9] and in experiment [10] was above 100 µM each time.

Turning to `CC(C)(C)c1cc(C2=NNC(c3ccccc3)C2)cc(C(C)(C)C)c1O` (stereo not given), the TGI in [1] is 25.3 µM; in experiment [2], 31.7 µM; in experiment [3] it was 44.7 µM; in [4], 26.8 µM; in experiment [5], 28 µM; in experiment [7] it was 55.6 µM. Moreover, the TGI came out at 30.3 µM in experiment [8], 31.7 µM in [9] and 31.2 µM in experiment [10].

With `Cc1nn(-c2ccccc2)c(C)c1/C=N/N=C1\SCC(=O)N1c1ccccc1`, the TGI in [1] is 55 µM; in experiment [2], 55.1 µM; in experiment [3], 67.2 µM; in experiment [4] it was 55.3 µM; in [5], 68.3 µM; in experiment [6] it was above 100 µM. The TGI in [7] is above 100 µM; in experiment [8], above 100 µM; in experiment [9], 94.7 µM.

Turning to `CCOC(=O)C1=NN(c2ccc(C)cc2)C2=CC(C)=NN(C)C(=S)N21`, the TGI in [1], in experiment [2], in experiment [3], in experiment [4], in [5] and in experiment [6] was above 100 µM in each case. The TGI in experiment [7], in [8] and in experiment [9] was above 100 µM in each case.

On to `Fc1ccc(C(OCCN2CCC3CCC(C2)N3C/C=C/c2ccco2)c2ccc(F)cc2)cc1` (stereo not given), for which the TGI turned out to be 30 µM in experiment [1]; 19.6 µM in experiment [2]; 28.4 µM in [3]; 26.5 µM in experiment [4]; 26.7 µM in experiment [5]; 20.7 µM in [6]. Further, the TGI in [7] came out at 34.3 µM; in experiment [8], 34.6 µM; in experiment [9], 30.6 µM; in [10], 19.1 µM.

As for `O=c1cccccc1[O-].O=c1cccccc1[O-].[O]=[U+2]=[O]`, the TGI came out at 99.6 µM in [2], 43.1 µM in experiment [3], 41.6 µM in [5] and 70.6 µM in [10]. Moreover, the GI50 in [3] is 20.6 µM.

For `O=C(OCN1C(=O)C2C3C=CC(C2C1=O)C1C2C(=O)N(COC(=O)C4CCCN4)C(=O)C2C31)C1CCCN1` (stereo not given), the TGI is above 100 µM in experiment [1]; 67.5 µM in experiment [2]; above 100 µM in experiment [3]; above 100 µM in [5]; above 100 µM in experiment [6]; above 100 µM in experiment [9]. The molecule also came in with a TGI in experiment [10] above 100 µM.

Regarding `CCn1c(-c2ccc(N=NNc3ccc(-c4n[nH]c(=S)n4CC)cc3)cc2)n[nH]c1=S`, the TGI in experiment [1] is 6.92 µM; in experiment [2] it was 6.96 µM; in experiment [6], above 100 µM; in experiment [7] it was above 100 µM; in experiment [8], 8.17 µM; in experiment [9] it was 5.93 µM. Also, the TGI in experiment [10] stood at 7.71 µM.

On to `NCCCCc1cc(O)c2c(c1O)C(=O)c1ccccc1C2=O`, for which the TGI was determined as 16.3 µM in [2]; 21.8 µM in [3]; 43.6 µM in experiment [4]; 32.6 µM in experiment [5]; 17.3 µM in experiment [6]; 26.8 µM in [8]. Also, the TGI amounted to 24.2 µM in experiment [9] and 31.1 µM in experiment [10].

For `[N-]=[N+]=CC(=O)c1ccccc1C#CCCc1ccccc1`, the TGI in experiment [1] was 61.4 µM; in [2], above 100 µM; in experiment [3], above 100 µM; in experiment [5] it was 69.8 µM; in experiment [6] it was above 100 µM; in experiment [9], above 100 µM. This molecule returned a TGI in experiment [10] of 63.6 µM.

Regarding `CCC(C)C1=C(OC(C)=O)[N+]2([O-])Oc3ccc(-c4c(OC(C)=O)c(OC(C)=O)c(-c5ccc(OC(C)=O)cc5)c(OC(C)=O)c4OC(C)=O)cc3OC2(C(C)CC)C(=O)N1OC(C)=O` (stereo not given), the TGI in experiment [1] is 42.3 µM; in [2], above 50 µM; in experiment [3] it was above 50 µM; in [4], above 50 µM; in experiment [5], 16.7 µM; in experiment [6] it was 39.7 µM. Besides, the TGI in [8] and in [9] was above 50 µM throughout.

As for `COc1cc2c(cc1O)CC[C@@H]1[C@@H]2CC[C@]2(C)[C@@H](OCCN(C)C)CC[C@@H]12`, the GI50 was 0.0787 µM in experiment [1]; 0.488 µM in experiment [2]; 0.129 µM in [3]; 0.0997 µM in experiment [4]; 0.128 µM in [5]; 0.15 µM in experiment [6]. The GI50 in experiment [7] is 0.463 µM; in [8], 0.182 µM. In addition, the TGI is 0.449 µM in experiment [1]; 5.88 µM in experiment [2]; 0.414 µM in experiment [3]; 0.208 µM in [4]; 0.363 µM in [5]; 0.685 µM in [6]. In addition, the TGI was 4 µM in [7] and 5.35 µM in experiment [8].
